pIC50: −log10 of the molar value.
How the values were obtained:
[1] = biological target: T1, Aldehyde dehydrogenase 1A1 (Homo sapiens, UniProt P00352); test: Inhibition of human ALDH1A1 expressed in Escherichia coli BL21(DE3) pLys cell in presence of NAD+ by fluorescence based assay
T1 sequence (P00352 whole entry): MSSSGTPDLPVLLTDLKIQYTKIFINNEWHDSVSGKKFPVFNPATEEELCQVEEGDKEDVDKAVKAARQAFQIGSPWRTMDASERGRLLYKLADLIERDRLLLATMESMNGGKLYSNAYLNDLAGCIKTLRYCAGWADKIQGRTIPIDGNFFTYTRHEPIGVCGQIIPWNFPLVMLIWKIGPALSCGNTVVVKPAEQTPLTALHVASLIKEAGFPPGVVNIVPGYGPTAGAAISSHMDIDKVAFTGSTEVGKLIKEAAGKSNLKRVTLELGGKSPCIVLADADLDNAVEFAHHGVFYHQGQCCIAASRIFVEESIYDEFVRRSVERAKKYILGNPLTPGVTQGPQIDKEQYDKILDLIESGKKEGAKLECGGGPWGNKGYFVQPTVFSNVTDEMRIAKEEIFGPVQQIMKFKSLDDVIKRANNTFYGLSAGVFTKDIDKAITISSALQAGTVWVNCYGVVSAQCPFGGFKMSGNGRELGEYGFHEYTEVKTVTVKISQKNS

[2] = biological target: T2, Retinaldehyde dehydrogenase 3 (Homo sapiens, UniProt P47895); test: Inhibition of human ALDH1A3 expressed in Escherichia coli BL21(DE3) pLys cell in presence of NAD+ by fluorescence based assay
T2 sequence (P47895 whole entry): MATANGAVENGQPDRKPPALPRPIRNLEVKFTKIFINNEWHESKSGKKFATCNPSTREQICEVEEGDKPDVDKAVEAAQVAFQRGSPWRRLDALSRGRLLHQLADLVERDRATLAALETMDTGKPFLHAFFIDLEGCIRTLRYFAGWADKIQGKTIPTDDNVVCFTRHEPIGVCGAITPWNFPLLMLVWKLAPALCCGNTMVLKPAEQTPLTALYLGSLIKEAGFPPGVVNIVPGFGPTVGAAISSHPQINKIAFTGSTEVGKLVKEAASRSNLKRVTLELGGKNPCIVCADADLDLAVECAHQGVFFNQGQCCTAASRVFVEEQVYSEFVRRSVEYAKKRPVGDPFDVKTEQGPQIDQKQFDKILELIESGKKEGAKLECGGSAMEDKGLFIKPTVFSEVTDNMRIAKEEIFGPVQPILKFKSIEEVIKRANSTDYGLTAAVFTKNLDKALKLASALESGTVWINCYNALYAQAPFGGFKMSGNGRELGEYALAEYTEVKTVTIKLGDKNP

[3] = biological target: T1, Aldehyde dehydrogenase 1A1; test: Inhibition of ALDH1A1 (unknown origin)
[4] = biological target: T3, Aldehyde dehydrogenase 1A1 (Homo sapiens) (UniProt P00352); test: Inhibition of human ALDH1A1 assessed as fluorescent enhancement checked in presence of NAD+ by fluorescence based assay
T3 sequence (whole entry): T1 sequence (P00352 whole entry)

NCI/ADR-RES = test: cells; settings: Homo sapiens
TOV21G = test: Anticancer activity against human TOV-21G-RT cells assessed as inhibition of cell growth; type: functional, cell-based
[5] = biological target: T1, Aldehyde dehydrogenase 1A1; test: Inhibition of human ALDH1A1 using propionaldehyde as substrate in presence of NAD+ by UV-visible spectrophometric analysis
A549 = test: Anticancer activity against human A549 cells assessed as inhibition of cell growth by MTT assay; type: functional, cell-based

O=C(O)CN1C(=O)S/C(=C/c2ccc(OCc3nc4ccccc4c(=O)n3-c3ccccc3)cc2)C1=O
pIC50 [1]: 5.27 | pIC50 [2]: 4.64

CCC(SC1=Nc2ccccc2C2=NC(C(C)CC)C(=O)N12)C(=O)N1CCc2ccccc21 (centres undefined)
pIC50 [3]: 6.41

CCC(SC1=Nc2ccccc2C2=NC(CC(C)C)C(=O)N12)C(=O)N1CCc2ccccc21 (centres undefined)
pIC50 [3]: 5.93

CCC(SC1=Nc2ccccc2C2=NC(C(C)C)C(=O)N12)C(=O)Nc1ccccc1 (centres undefined)
pIC50 [3]: 6.36

Cc1cc(C=O)ccc1-c1c2cc(F)c(=O)cc-2oc2cc(O)c(F)cc12
Activity [4]: 20

CC(=O)O[C@H]1C(=O)[C@@]2(C)[C@H]([C@H](OC(=O)c3ccccc3)[C@]3(O)C[C@H](OC(=O)[C@H](O)[C@@H](NC(=O)c4ccccc4)c4ccccc4)C(C)=C1C3(C)C)[C@]1(OC(C)=O)CO[C@@H]1C[C@@H]2O [PACLITAXEL]
pIC50 (NCI/ADR-RES): 6.74 | pIC50 (TOV21G): 6.58

CC(C)CCn1c(CN2CCN(C(N)=O)CC2)nc2c1c(=O)n(C)c(=O)n2C
pIC50 [5]: 6.68

CCCCCC(=O)N1C[C@@H](CCl)c2c1ccc1ccccc21
pIC50 (A549): 7.55

CCC(SC1=Nc2ccccc2C2=NC(CC(C)C)C(=O)N12)C(=O)Nc1ccccc1 (centres undefined)
pIC50 [3]: 6.24

CCC(SC1=Nc2ccccc2C2=NC(C(C)C)C(=O)N12)C(=O)N1CCc2ccccc21 (centres undefined)
pIC50 [3]: 6.08

COc1cccc2c1C(=O)c1c(O)c3c(c(O)c1C2=O)C[C@@](O)(C(=O)CO)C[C@@H]3O[C@H]1C[C@H](N)[C@H](O)[C@H](C)O1 [DOXORUBICIN]
pIC50 (NCI/ADR-RES): 6.69 | pIC50 (TOV21G): 6.43

— ChEMBL document CHEMBL5149964, “Discovery and development of selective aldehyde dehydrogenase 1A1 (ALDH1A1) inhibitors” (Eur J Med Chem, 2021)
